Measured values taken from PubChem BioAssay AID624482 (The Scripps Research Institute Molecular Screening Center, 2012).
Calls of active or inactive are those of the source.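 How the source made its calls: active means inhibition of the enzyme prolyl endopeptidase above 20%; inactive means inhibition at or below 20%.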

Target: Prolyl endopeptidase (Mus musculus) (UniProt Q9QUR6)
Experiment: mouse PEP inhibitors, selectivity assay for PREPL inhibitor project, biochemical, fluorescence, assay provider data (AID 624482)
Conditions: recombinant PEP, Z-Gly-Pro-AMC fluorescence; at 20 µM; hits give high values

Chain of Prolyl endopeptidase (Mus musculus) (Q9QUR6 whole entry, looked up): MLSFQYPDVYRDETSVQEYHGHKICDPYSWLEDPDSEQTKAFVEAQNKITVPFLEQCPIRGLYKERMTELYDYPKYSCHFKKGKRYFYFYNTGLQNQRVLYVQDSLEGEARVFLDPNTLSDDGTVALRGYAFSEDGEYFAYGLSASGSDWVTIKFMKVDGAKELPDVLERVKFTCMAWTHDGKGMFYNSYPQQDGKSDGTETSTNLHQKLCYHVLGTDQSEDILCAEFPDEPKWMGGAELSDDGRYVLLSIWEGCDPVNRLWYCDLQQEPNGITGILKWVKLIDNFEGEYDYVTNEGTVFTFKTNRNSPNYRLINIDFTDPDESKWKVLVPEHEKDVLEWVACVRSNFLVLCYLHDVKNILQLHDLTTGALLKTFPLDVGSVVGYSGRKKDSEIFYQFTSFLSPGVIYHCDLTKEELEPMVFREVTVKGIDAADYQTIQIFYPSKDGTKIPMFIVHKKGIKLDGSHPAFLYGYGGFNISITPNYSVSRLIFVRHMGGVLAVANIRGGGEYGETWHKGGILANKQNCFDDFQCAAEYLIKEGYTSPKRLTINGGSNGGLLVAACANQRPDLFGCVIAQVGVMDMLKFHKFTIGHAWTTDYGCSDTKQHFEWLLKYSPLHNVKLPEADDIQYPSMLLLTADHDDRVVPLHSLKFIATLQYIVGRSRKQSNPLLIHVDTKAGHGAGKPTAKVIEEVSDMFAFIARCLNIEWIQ

N#Cc1c2c(c(-c3ccccc3)[nH]c1=O)CCCC2
inhibition: -13% (inactive)

CC(C)Cc1[nH]c(=O)c(C#N)c2c1CCC2
inhibition: -17% (inactive)

CCOc1ccc(CCNC(=O)c2ccc3c(=O)[nH]c4c(C(=O)NC(C)C)sc(=S)n4c3c2)cc1
inhibition: -29% (inactive)

O=C(Nc1ccc2c(c1)OCCO2)c1cccc2nc3ccccc3nc12
inhibition: -26% (inactive)

COc1cc2nc(Nc3ccc(C)c(C)c3)nc(N)c2cc1OC
inhibition: 46%
